Laboratory results published in ChEMBL document CHEMBL4808200, “Identification of a Series of N-Methylpyridine-2-carboxamides as Potent and Selective Inhibitors of the Second Bromodomain (BD2) of the Bromo and Extra Terminal Domain (BET) Proteins” (J Med Chem, 2021).
Values after ≈ are worked out from the molar mass of the structure shown.

Key:
[1] = Solubility of the compound in pH 6.5 FaSSIF at […] measured after 16 hrs by HPLC analysis; type: physicochemical
[2] = Permeability of the compound at pH 7.4 by artificial membrane permeability assay; type: ADME; settings: PAMPA, read-out: permeability
physchem = settings: buffer, pH 7.4
[3] = Intrinsic clearance in Wistar Han rat cryopreserved pooled hepatocytes at 0.5 uM measured up to 60 mins by LC-MS/MS analysis; type: ADME, tissue-based, Hepatocyte; settings: 1 h
[4] = Intrinsic clearance in Beagle dog cryopreserved pooled hepatocytes at 0.5 uM measured up to 120 mins by LC-MS/MS analysis; type: ADME, tissue-based, Canis lupus familiaris, Hepatocyte; settings: 2 h
[5] = Intrinsic clearance in human cryopreserved pooled hepatocytes at 0.5 uM measured up to 120 mins by LC-MS/MS analysis; type: ADME, tissue-based, Hepatocyte; settings: 2 h
[6] = Clearance in Wistar Han rat at 1 mg/kg, iv administered as 1 hr infusion or 3 mg/kg, po administered via gavage by LC-MS/MS analysis; type: ADME, organism-based; settings: in vivo
[7] = Volume of distribution at steady state in Wistar Han rat at 1 mg/kg, iv administered as 1 hr infusion or 3 mg/kg, po administered via gavage by LC-MS/MS analysis; type: ADME, organism-based; settings: in vivo, read-out: Vdss
[8] = Oral bioavailability in Wistar Han rat at 3 mg/kg administered via gavage by LC-MS/MS analysis; type: ADME, organism-based; settings: in vivo
[9] = Unbound clearance in Wistar Han rat at 1 mg/kg, iv administered as 1 hr infusion or 3 mg/kg, po administered via gavage by LC-MS/MS analysis; type: ADME, organism-based; settings: in vivo
[10] = Half life in Wistar Han rat at 1 mg/kg, iv administered as 1 hr infusion or 3 mg/kg, po administered via gavage by LC-MS/MS analysis; type: ADME, organism-based; settings: in vivo
[11] = Clearance in Beagle dog at 0.5 mg/kg, iv administered as 1 hr infusion on day 1 and day 7 to achieve a target dose of 1 mg/kg by LC-MS/MS analysis; type: ADME, organism-based, Canis lupus familiaris; settings: in vivo, dose 0.5-1 mg/kg, time 7 day
[12] = Volume of distribution at steady state in Beagle dog at 0.5 mg/kg, iv administered as 1 hr infusion on day 1 and day 7 to achieve a target dose of 1 mg/kg by LC-MS/MS analysis; type: ADME, organism-based, Canis lupus familiaris; settings: in vivo, dose 0.5-1 mg/kg, time 7 day, read-out: Vdss
[13] = Oral bioavailability in Beagle dog; type: ADME, organism-based, Canis lupus familiaris; settings: in vivo
[14] = Unbound clearance in Beagle dog at 0.5 mg/kg, iv administered as 1 hr infusion on day 1 and day 7 to achieve a target dose of 1 mg/kg by LC-MS/MS analysis; type: ADME, organism-based, Canis lupus familiaris; settings: in vivo, 168 h, dose 0.5-1 mg/kg, time 7 day
[15] = Half life in Beagle dog at 0.5 mg/kg, iv administered as 1 hr infusion on day 1 and day 7 to achieve a target dose of 1 mg/kg by LC-MS/MS analysis; type: ADME, organism-based, Canis lupus familiaris; settings: in vivo, dose 0.5-1 mg/kg, time 7 day

Row | SMILES | solubility at 16 h [1] | Papp [2] | chromatographic logD (physchem) | further results
1 | CNC(=O)c1cc(C(=O)NC2COC2)cc(Cc2ccccc2)n1 | 73 µg/mL (≈ 224 µM) | 16 ×10⁻⁶ cm/s | 3.1 | 
2 | CNC(=O)c1cc(C(=O)NC2CC2)cc(Cc2cccc3cn[nH]c23)n1 |  | 20 ×10⁻⁶ cm/s | 2.9 | 
3 | CNC(=O)c1cc(C(=O)N[C@H]2[C@@H]3C[C@@H](O)C[C@@H]32)cc(Cc2ccccc2)n1 | 143 µg/mL (≈ 391 µM) | 7.1 ×10⁻⁶ cm/s | 3.1 | 
4 | CNC(=O)c1cc(C(=O)NC2CCOCC2)cc(Cc2ccccc2)n1 | 173 µg/mL (≈ 489 µM) | 22 ×10⁻⁶ cm/s | 3.7 | 
5 | CC(=O)Nc1ccc(C(=O)NCCc2cnc[nH]2)cc1OCc1ccccc1 |  |  | 2.2 | 
6 | CNC(=O)c1cc(C(=O)NC2CC2)cc(Cc2cccc3c2CCN3)n1.Cl | 953 µg/mL | 19 ×10⁻⁶ cm/s | 3 | CLH [3]: 0.88 mL/min/g; CLH [4]: < 0.65 mL/min/g; CLH [5]: < 0.45 mL/min/g; clearance [6]: 33 mL/min/kg; Vd [7]: 4.1 L/kg; bioavailability [8]: 98%; CL free [9]: 73 mL/min/kg; half-life [10]: 114 min
7 | CNC(=O)c1cc(C(=O)NC2CC2)cc(Cc2cccc3[nH]ccc23)n1 |  | 30.5 ×10⁻⁶ cm/s | 3.5 | 
8 | CNC(=O)c1cc(C(=O)N[C@H]2C[C@@H]2C)cc(C(OC)c2ccccc2)n1 (some centres undefined) |  | 56 ×10⁻⁶ cm/s | 4.3 | 
9 | CNC(=O)c1cc(C(=O)N[C@H]2[C@@H]3COC[C@@H]32)cc(C(O)c2ccccc2)n1 (some centres undefined) | 473 µg/mL (≈ 1290 µM) | 2.4 ×10⁻⁶ cm/s | 2.2 | 
10 | CNC(=O)c1cc(C(=O)N[C@H]2C[C@@H]2C)cc(Cc2ccccc2)n1 | 94 µg/mL (≈ 291 µM) | 63 ×10⁻⁶ cm/s | 4.6 | 
11 | CNC(=O)c1cc(Cc2ccccc2)nc(C(=O)NC)c1 | > 1000 µg/mL | 20 ×10⁻⁶ cm/s | 3.1 | 
12 | CNC(=O)c1cc(C(=O)NC2CC2)cc([C@@H](C)c2ccccc2)n1 | 123 µg/mL (≈ 380 µM) | 55.5 ×10⁻⁶ cm/s | 4.4 | 
13 | CCNC(=O)c1cc(Cc2ccccc2)nc(C(=O)NC)c1 | 310 µg/mL (≈ 1040 µM) |  | 3.7 | 
14 | CNC(=O)c1cc(C(=O)N[C@H]2[C@@H]3COC[C@@H]32)cc(C(CC#N)c2ccccc2)n1 (some centres undefined) | 930 µg/mL (≈ 2380 µM) | 20 ×10⁻⁶ cm/s | 3.1 | CLH [3]: 1.87 mL/min/g; CLH [4]: < 0.65 mL/min/g; CLH [5]: < 0.45 mL/min/g; clearance [6]: 70 mL/min/kg; Vd [7]: 5.9 L/kg; bioavailability [8]: 54%; half-life [10]: 264 min
15 | CNC(=O)c1cc(C(=O)N[C@H]2[C@@H]3C[C@H](O)C[C@@H]32)cc(Cc2ccccc2)n1 | 43 µg/mL (≈ 118 µM) | 15 ×10⁻⁶ cm/s | 3.5 | 
16 | CNC(=O)c1cc(C(=O)N[C@H]2[C@@H]3C[C@@H](O)C[C@@H]32)cc([C@@H](C)c2ccccc2)n1 | 744 µg/mL (≈ 1960 µM) | 13 ×10⁻⁶ cm/s | 3.6 | 
17 | CNC(=O)c1cc(C(=O)NC2CC2)cc(Cc2ccccc2)n1 | 89 µg/mL (≈ 288 µM) | 38.5 ×10⁻⁶ cm/s | 3.9 | CLH [3]: 5.3 mL/min/g; CLH [4]: < 1.3 mL/min/g; CLH [5]: < 0.87 mL/min/g; clearance [6]: 12 mL/min/kg; Vd [7]: 0.4 L/kg; bioavailability [8]: 29%; CL free [9]: 343 mL/min/kg; half-life [10]: 18 min
18 | CNC(=O)c1cc(C(=O)N[C@H]2C[C@@H]2C)cc([C@@H](CO)c2ccccc2)n1 | > 1000 µg/mL | 10 ×10⁻⁶ cm/s | 3.3 | 

Row | SMILES | solubility at 16 h [1] | Papp [2] | chromatographic logD (physchem) | further results
19 | CNC(=O)c1cc(C(N)=O)cc(Cc2ccccc2)n1 |  | 21 ×10⁻⁶ cm/s | 2.7 | 
20 | CNC(=O)c1cc(C(=O)NC2CC2)cc([C@@H](O)c2ccccc2)n1 | > 1000 µg/mL | 7.15 ×10⁻⁶ cm/s | 2.4 | 
21 | CNC(=O)c1cc(C(=O)NC2CC2)cn([C@@H](C)c2ccccc2)c1=O | 598 µg/mL (≈ 1760 µM) |  | 3.3 | 
22 | CNC(=O)c1cc(C(=O)NC(C)C)cc(Cc2ccccc2)n1 | 101 µg/mL (≈ 324 µM) | 57 ×10⁻⁶ cm/s |  | 
23 | CNC(=O)c1cc(C(=O)O)cc(Cc2ccccc2)n1 | > 1000 µg/mL |  |  | 
24 | CNC(=O)c1cc(C(=O)NC2CC2)cn(Cc2cccc3[nH]ccc23)c1=O | 20 µg/mL (≈ 54.9 µM) | 17.8 ×10⁻⁶ cm/s |  | 
25 | CNC(=O)c1cc(C(=O)N[C@H]2[C@@H]3C[C@@H](O)C[C@@H]32)cc(C(OC)c2ccccc2)n1 (some centres undefined) |  | 5.6 ×10⁻⁶ cm/s | 2.9 | CLH [3]: < 0.8 mL/min/g; CLH [4]: < 0.65 mL/min/g; CLH [5]: < 0.45 mL/min/g; clearance [6]: 57 mL/min/kg; Vd [7]: 1.8 L/kg; bioavailability [8]: 77%; CL free [9]: 95 mL/min/kg; half-life [10]: 42 min
26 | CNC(=O)c1cccc(Cc2ccccc2)n1 | 258 µg/mL (≈ 1140 µM) | 77 ×10⁻⁶ cm/s | 4.3 | 
27 | CNC(=O)c1cc(C(=O)N[C@H]2C[C@H](O)C2)cc(Cc2ccccc2)n1 | 194 µg/mL (≈ 572 µM) | 7.3 ×10⁻⁶ cm/s | 2.7 | 
28 | CNC(=O)c1cc(C(=O)NC2CC2)cc([C@H](C)c2ccccc2)n1 | 182 µg/mL (≈ 563 µM) | 49 ×10⁻⁶ cm/s | 4.3 | 
29 | CNC(=O)c1cc(C(=O)N[C@H]2[C@@H]3C[C@H](O)C[C@@H]32)cc([C@@H](C)c2ccccc2)n1 | 572 µg/mL (≈ 1510 µM) | 28 ×10⁻⁶ cm/s | 4.1 | 
30 | CNC(=O)c1cc(C(=O)NCCC[C@H]2OC[C@H](N)CO2)cc(Cc2ccccc2)n1 |  | 15 ×10⁻⁶ cm/s | 2.8 | CLH [3]: 1.04 mL/min/g; CLH [4]: < 0.65 mL/min/g; CLH [5]: < 0.45 mL/min/g; clearance [6]: 31 mL/min/kg; clearance [11]: 42 mL/min/kg; Vd [7]: 0.7 L/kg; Vd [12]: 2.4 L/kg; bioavailability [8]: 28%; bioavailability [13]: 98%; CL free [9]: 365 mL/min/kg; CL free [14]: 118 mL/min/kg; half-life [10]: 24 min; half-life [15]: 54 min
31 | CC(=O)Nc1c(F)cc(C(=O)N[C@H]2CC[C@H](O)CC2)cc1O[C@@H](C)c1ccccc1 [GSK046] |  |  | 2.8 | 
32 | CNC(=O)c1cc(C(=O)N(C)C)cc(Cc2ccccc2)n1 |  | 33 ×10⁻⁶ cm/s | 3.3 | 
33 | CNC(=O)c1cc(C(=O)NC2CC2)cn([C@H](C)c2ccccc2)c1=O |  |  | 3.5 | 
34 | CNC(=O)c1cc(C(=O)N[C@H]2C[C@@H]2C)cc([C@@H](CC#N)c2ccccc2)n1 |  | 35.3 ×10⁻⁶ cm/s | 4 | 
35 | CNC(=O)c1cc(C(=O)N[C@H]2CC[C@H](O)CC2)cc(Cc2ccccc2)n1 | 473 µg/mL (≈ 1290 µM) | 8.6 ×10⁻⁶ cm/s | 3.1 | 
